In this assay the target is bsLDH (Geobacillus stearothermophilus, UniProt P00344). Format: binding.

Structures are written as SMILES.

Chain of bsLDH (P00344 whole entry): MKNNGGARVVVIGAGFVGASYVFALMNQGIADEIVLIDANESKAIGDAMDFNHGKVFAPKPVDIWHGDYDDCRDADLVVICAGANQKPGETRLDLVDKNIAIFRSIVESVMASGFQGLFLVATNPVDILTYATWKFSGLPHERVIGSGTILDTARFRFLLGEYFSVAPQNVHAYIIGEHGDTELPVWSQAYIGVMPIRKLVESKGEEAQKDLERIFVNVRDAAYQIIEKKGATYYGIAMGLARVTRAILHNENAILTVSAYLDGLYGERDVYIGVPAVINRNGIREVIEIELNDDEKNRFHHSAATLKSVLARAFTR

By Kd is commonly meant the free concentration of one partner at which half of the binding sites on the other are occupied at equilibrium, for simple one-to-one binding. The low end stands for higher affinity, the high end for lower affinity. As for `NC(=O)C1=CN([C@@H]2O[C@H](COP(=O)(O)OP(=O)(O)OC[C@H]3O[C@@H](n4cnc5c(N)ncnc54)[C@H](O)[C@@H]3O)[C@@H](O)[C@H]2O)C=CC1` [NADH], the dissociation constant Kd was 1300 ± 700 nM.

The values above are taken from publication PMC5235360 (Biochemistry, 2016).
